In patent US5488060A, “Substituted thiadiazoles, compositions containing them and their use as antimicrobial and marine antifouling agents” (The Dow Chemical Company, priority 1994, dated 1996):
In brackets after ≈: the same amount, converted by molar mass. Like-named read-outs stand apart in the source and are kept apart here.

Legend:
Assay type in all cases: cell-based
Bacillus subtilis (Bs) = assay: Minimum inhibitory concentration (MIC) in nutrient agar, Bacillus subtilis
Outline: (§1)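 Agar dilution in nutrient agar at pH 6.8 and pH 8.2 (tricine-buffered), compound at 0–500 ppm from a 1% acetone/water solution. Replicator inoculation from 10^8 CFU/mL suspensions; plates incubated 48 h at 30° C. MIC is the lowest concentration preventing growth.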

[1] = test system: Enterobacter aerogenes (Ea); assay: Minimum inhibitory concentration (MIC) in nutrient agar, Enterobacter aerogenes; conditions: Klebsiella aerogenes, 48 h
Outline: as §1

Escherichia coli (Ec) = assay: Minimum inhibitory concentration (MIC) in nutrient agar, Escherichia coli
Outline: as §1

[2] = test system: Klebsiella pneumoniae (Kp); assay: Minimum inhibitory concentration (MIC) in nutrient agar, Klebsiella pneumoniae
Outline: as §1

Proteus vulgaris (Pv) = assay: Minimum inhibitory concentration (MIC) in nutrient agar, Proteus vulgaris; conditions: 48 h
Outline: as §1

[3] = test system: Pseudomonas aeruginosa (PRD-10); assay: Minimum inhibitory concentration (MIC) in nutrient agar, Pseudomonas aeruginosa PRD-10
Outline: as §1

[4] = test system: Pseudomonas aeruginosa (Pa); assay: Minimum inhibitory concentration (MIC) in nutrient agar, Pseudomonas aeruginosa; conditions: 30° C., 48 hours, read-out: Minimum Inhibitory Concentration, Pa
Outline: as §1

[5] = test system: Salmonella choleraesuis (Se); assay: Minimum inhibitory concentration (MIC) in nutrient agar, Salmonella choleraesuis; conditions: Salmonella enterica, 48 h
Outline: as §1

[6] = test system: Staphylococcus aureus (Sa); assay: Minimum inhibitory concentration (MIC) in nutrient agar, Staphylococcus aureus
Outline: as §1

Aspergillus niger (An) = assay: Minimum inhibitory concentration (MIC) in malt yeast agar, Aspergillus niger
Outline: (§2)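 Agar dilution: test compound from a 1% acetone/water solution was mixed into malt yeast agar (pH 5.5) at 48 °C to final […], 25, 10, 5, 2.5, 1.0 and zero ppm. Plates dried 24 h, were replicator-inoculated with 1:9 saline-diluted suspensions of 7-day 30 °C cultures, and were read after 72 h (fungi) or 48 h (yeast) at 30 °C.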

Candida albicans (Ca) = assay: Minimum inhibitory concentration (MIC) in malt yeast agar, Candida albicans
Outline: as §2

[7] = test system: Penicillium chrysogenum (Pc); assay: Minimum inhibitory concentration (MIC) in malt yeast agar, Penicillium chrysogenum
Outline: as §2

[8] = test system: Saccharomyces cerevisiae (Sc); assay: Minimum inhibitory concentration (MIC) in malt yeast agar, Saccharomyces cerevisiae; conditions: pH 5.5, malt yeast agar, 30° C., 48 hours for yeast, read-out: Minimum Inhibitory Concentration, SC
Outline: as §2

Trichoderma viride (Tv) = assay: Minimum inhibitory concentration (MIC) in malt yeast agar, Trichoderma viride
Outline: as §2

[9] = test system: Aureobasidium pullulan (Ap); assay: Minimum inhibitory concentration (MIC) in malt yeast agar, Aureobasidium pullulan; conditions: pH 5.5; malt yeast agar, 30° C.; read-out: Minimum Inhibitory Concentration, Ap
Outline: as §2

Fusarium oxysporum (Fo) = assay: Minimum inhibitory concentration (MIC) in malt yeast agar, Fusarium oxysporum
Outline: as §2

[10] = pH 6.8, nutrient agar, 30° C., 48 hours, read-out: Minimum Inhibitory Concentration, Bs
[11] = pH 6.8, read-out: Minimum Inhibitory Concentration, Ea
[12] = pH 8.2, read-out: Minimum Inhibitory Concentration, Ea
[13] = 48 h, pH 6.8, read-out: Minimum Inhibitory Concentration, Ec
[14] = pH 8.2, nutrient agar, 30° C., 48 hours, read-out: Minimum Inhibitory Concentration, Ec
[15] = 48 h, pH 8.2, read-out: Minimum Inhibitory Concentration, Kp
[16] = pH 6.8, nutrient agar, 30° C., 48 hours, read-out: Minimum Inhibitory Concentration, Kp
[17] = pH 6.8, read-out: Minimum Inhibitory Concentration, Pv
[18] = pH 8.2, read-out: Minimum Inhibitory Concentration, Pv
[19] = 48 h, pH 8.2, read-out: Minimum Inhibitory Concentration, PRD
[20] = pH 6.8, read-out: Minimum Inhibitory Concentration, SC
[21] = pH 8.2, read-out: Minimum Inhibitory Concentration, SC
[22] = 48 h, pH 8.2, read-out: Minimum Inhibitory Concentration, Sa
[23] = pH 6.8, nutrient agar, 30° C., 48 hours, read-out: Minimum Inhibitory Concentration, Sa
[24] = pH 5.5, malt yeast agar, 30° C., 72 hours for fungi, read-out: Minimum Inhibitory Concentration, An
[25] = pH 5.5, malt yeast agar, 30° C., 48 hours for yeast, read-out: Minimum Inhibitory Concentration, Ca
[26] = pH 5.5, malt yeast agar, 30° C., 72 hours for fungi, read-out: Minimum Inhibitory Concentration, PC
[27] = pH 5.5, malt yeast agar, 30° C., 72 hours for fungi, read-out: Minimum Inhibitory Concentration, Tv
[28] = pH 5.5, malt yeast agar, 30° C., 72 hours for fungi, read-out: Minimum Inhibitory Concentration, Fo
[29] = 48 h, pH 8.2, read-out: Minimum Inhibitory Concentration, Bs
[30] = 48 h, pH 8.2, read-out: Minimum Inhibitory Concentration, Ec
[31] = 48 h, pH 6.8, read-out: Minimum Inhibitory Concentration, PRD
[32] = 72 h, pH 5.5, read-out: Minimum Inhibitory Concentration, An
[33] = 48 h, pH 5.5, read-out: Minimum Inhibitory Concentration, Ca
[34] = 72 h, pH 5.5, read-out: Minimum Inhibitory Concentration, Tv
[35] = 72 h, pH 5.5, read-out: Minimum Inhibitory Concentration, Fo
[36] = 48 h, pH 6.8, read-out: Minimum Inhibitory Concentration, Bs

Structure (SMILES) | MIC (Bacillus subtilis (Bs); [10]) [µg/mL] | MIC [1, 11] [µg/mL] | MIC [1, 12] [µg/mL] | MIC (Escherichia coli (Ec); [13]) [µg/mL] | MIC [2, 15] [µg/mL] | MIC [2, 16] [µg/mL] | MIC (Proteus vulgaris (Pv); [17]) [µg/mL] | MIC (Proteus vulgaris (Pv); [18]) [µg/mL] | MIC [3, 19] [µg/mL] | MIC ([4]; pH 8.2, nutrient agar) [µg/mL] | MIC [5, 20] [µg/mL] | MIC [5, 21] [µg/mL] | MIC [6, 22] [µg/mL] | MIC [6, 23] [µg/mL] | MIC [7, 26] [µg/mL] | MIC [8] [µg/mL] | MIC [9] [µg/mL] | MIC (Bacillus subtilis (Bs); [29]) [µg/mL] | MIC [3, 31] [µg/mL] | MIC ([4]; pH 6.8, nutrient agar) [µg/mL] | other results
N#CSCSc1nsnc1-c1ccc(F)cc1 [Example XXI, 4-(4-Fluorophenyl)-3-thiocyanatomethylthio-1,2,5-thiadiazole] | 9 (≈ 31.8 µM) | 500 (≈ 1760 µM) | > 500 | 500 (≈ 1760 µM) | > 500 | 500 (≈ 1760 µM) | 500 (≈ 1760 µM) | > 500 | > 500 | > 500 | 500 (≈ 1760 µM) | > 500 | > 500 | 500 (≈ 1760 µM) | 9 (≈ 31.8 µM) | 9 (≈ 31.8 µM) | 9 (≈ 31.8 µM) | – | – | – | MIC (Bacillus subtilis (Bs); pH 8.2, nutrient agar, 30° C., 48 hours, read-out: Minimum Inhibitory Concentration, Bs): 100 µg/mL (≈ 353 µM); MIC (Escherichia coli (Ec); [14]): 250 µg/mL (≈ 882 µM); MIC ([3]; pH 6.8, nutrient agar, 30° C., 48 hours, read-out: Minimum Inhibitory Concentration, PRD): 250 µg/mL (≈ 882 µM); MIC (Aspergillus niger (An); [24]): 9 µg/mL (≈ 31.8 µM); MIC (Candida albicans (Ca); [25]): 9 µg/mL (≈ 31.8 µM); MIC (Trichoderma viride (Tv); [27]): 25 µg/mL (≈ 88.2 µM); MIC (Fusarium oxysporum (Fo); [28]): 9 µg/mL (≈ 31.8 µM)
COc1cccc(-c2nsnc2SCSC#N)c1 [Example XXII, 4-(3-Methoxyphenyl)-3-thiocyanatomethylthio-1,2,5-thiadiazole] | 9 (≈ 30.5 µM) | 500 (≈ 1690 µM) | > 500 | 500 (≈ 1690 µM) | > 500 | 500 (≈ 1690 µM) | 500 (≈ 1690 µM) | > 500 | > 500 | > 500 | 500 (≈ 1690 µM) | > 500 | 500 (≈ 1690 µM) | 500 (≈ 1690 µM) | 25 (≈ 84.6 µM) | 9 (≈ 30.5 µM) | 9 (≈ 30.5 µM) | 25 (≈ 84.6 µM) | 500 (≈ 1690 µM) | 500 (≈ 1690 µM) | MIC (Escherichia coli (Ec); [30]): 500 µg/mL (≈ 1690 µM); MIC (Aspergillus niger (An); [32]): 50 µg/mL (≈ 169 µM); MIC (Candida albicans (Ca); [33]): 250 µg/mL (≈ 846 µM); MIC (Trichoderma viride (Tv); [34]): 250 µg/mL (≈ 846 µM); MIC (Fusarium oxysporum (Fo); [35]): 50 µg/mL (≈ 169 µM)
COc1ccc(-c2nsnc2SCSC#N)cc1 [Example XXIII, 4-(4-Methoxyphenyl)-3-thiocyanatomethylthio-1,2,5-thiadiazole] | – | > 500 | 500 (≈ 1690 µM) | > 500 | > 500 | > 500 | > 500 | > 500 | > 500 | > 500 | > 500 | > 500 | > 500 | > 500 | – | 9 (≈ 30.5 µM) | 9 (≈ 30.5 µM) | 250 (≈ 846 µM) | > 500 | > 500 | MIC (Bacillus subtilis (Bs); [36]): 500 µg/mL (≈ 1690 µM); MIC (Escherichia coli (Ec); [30]): > 500 µg/mL; MIC (Aspergillus niger (An); [32]): 25 µg/mL (≈ 84.6 µM); MIC (Candida albicans (Ca); [33]): 250 µg/mL (≈ 846 µM); MIC ([7]; 72 h, pH 5.5, read-out: Minimum Inhibitory Concentration, PC): 50 µg/mL (≈ 169 µM); MIC (Trichoderma viride (Tv); [34]): 250 µg/mL (≈ 846 µM); MIC (Fusarium oxysporum (Fo); [35]): 100 µg/mL (≈ 339 µM)
CSc1ccc(-c2nsnc2SCSC#N)cc1 [Example XXIV, 4-(4-Methylthiophenyl)-3-thiocyanatomethylthio-1,2,5-thiadiazole] | – | 500 (≈ 1610 µM) | > 500 | 500 (≈ 1610 µM) | > 500 | 500 (≈ 1610 µM) | 500 (≈ 1610 µM) | > 500 | > 500 | > 500 | 500 (≈ 1610 µM) | > 500 | > 500 | 500 (≈ 1610 µM) | 500 (≈ 1610 µM) | 500 (≈ 1610 µM) | 500 (≈ 1610 µM) | 500 (≈ 1610 µM) | 500 (≈ 1610 µM) | 500 (≈ 1610 µM) | MIC (Bacillus subtilis (Bs); [36]): 500 µg/mL (≈ 1610 µM); MIC (Escherichia coli (Ec); [14]): 250 µg/mL (≈ 803 µM); MIC (Aspergillus niger (An); [24]): 500 µg/mL (≈ 1610 µM); MIC (Candida albicans (Ca); [25]): 500 µg/mL (≈ 1610 µM); MIC (Trichoderma viride (Tv); [27]): 500 µg/mL (≈ 1610 µM); MIC (Fusarium oxysporum (Fo); [28]): 500 µg/mL (≈ 1610 µM)
